Data as given in patent US9809623B2, “α4β7 peptide monomer and dimer antagonists” (Protagonist Therapeutics, Inc., priority 2014, dated 2017).
Like-named read-outs stand apart in the source and are kept apart here. Numbered stars: 1 amine (or outer) side, 2 acyl side, 3 side chain; on linkers, the order of the positions; unused ones are H or OH. Bridge positions count the residues as written; N and C are the ends. Square brackets hold non-standard residues; d marks the D form. Peptide text beside a SMILES is read from it. I, II: the chains in the order shown. Phe(4-F) = N[C@@H](Cc1ccc(F)cc1)C(=O)O; 2Nal = N[C@@H](Cc1ccc2ccccc2c1)C(=O)O; Diglycolyl = O=C(COCC(=O)[*:2])[*:1]; NMeR = CN[C@@H](CCCNC(=N)N)C(=O)O; hPhe = N[C@@H](CCc1ccccc1)C(=O)O; Tic = O=C(O)[C@@H]1Cc2ccccc2CN1; NMeK = CN[C@@H](CCCCN)C(=O)O; Pen = CC(C)(S)[C@H](N)C(=O)O; dNMeK = CN[C@H](CCCCN)C(=O)O; Dap = NC[C@H](N)C(=O)O

Legend:
[1] = Simulated Intestinal Fluid (SIF) Stability Assay; type: in vitro ADME, porcine; conditions: pig, simulated intestinal fluid (SIF) with 1% porcine pancreatin, pH 6.5, Table 3-B
Procedure: Studies were carried out in simulated intestinal fluid (SIF) to evaluate intestinal stability of the peptide molecules of the instant invention. To prepare the SIF reagent, blank FASSIF was prepared by dissolving 0.348 g NaOH, 3.954 g sodium phosphate monobasic monohydrate and 6.186 g NaCl in a final volume of 1 liter water (final pH=6.5). To this solution, 24 g porcine pancreatin (Sigma catalog P7545) was added and stirred for 30 minutes (final pancreatin concentration is 2.4%). The solution was filtered through a cheese cloth and a No. 1 Whatman filter, and 10 ml aliquots were stored at −70° C. To run the reaction, a 10 ml aliquot was thawed at 37° C., and 125 ul aliquots were removed and mixed with an equal volume of blank FASSIF. The peptide stock solution (10 mM in 100% DMSO) was diluted 75-fold in blank FASSIF. A 50 μl aliquot of the diluted peptide was combined with 125 μl pancreatin (2.4%) and 125 μl blank FASSIF to yield final concentrations of 1% pancreatin and 22 μM peptide. The reactions were incubated at 37° C., and at various time points 50 μl aliquots were removed and added to 200 μl of quench solution containing 50% acetonitrile, 50% methanol, 5% formic acid, and 1 μg/ml internal standard. The quenched samples were centrifuged at 10,000 rpm for 10 minutes, and the supernatants were analyzed by LCMS/MS. The percent remaining at each time point was calculated based on the peak area response ratio of test to compound to internal standard. Half-lives were calculated by fitting to a first-order exponential decay equation using GraphPad.

α4β7 = α4β7 (Homo sapiens, UniProt P13612+P26010); assay: α4β7-MAdCAM Cell Adhesion Assay (RPMI 8866 human cells); type: cell-based; parameters: host or cells: RPMI 8866 human B lymphoblastoid cells; conditions: Table 3-B, Potency (α4β7); range classes; read-out: α4β7 cell (Hu) IC50
Procedure, shortened: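 Washed RPMI 8866 cells (200,000/well) in DMEM with 0.1% BSA, 10 mM HEPES pH 7, 1 mM MnCl2 adhered to rh MAdCAM-1/Fc-coated wells with serially diluted peptides, 30-45 min at 37 °C. After three washes, bound cells quantified by MTT, A570, cell-free background subtracted for dose response.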

[2] = > means experiment was stopped at that time and half life was not reached, read-out: Stabilty SIF t1/2

Sequence of α4β7 (P13612 34-1032): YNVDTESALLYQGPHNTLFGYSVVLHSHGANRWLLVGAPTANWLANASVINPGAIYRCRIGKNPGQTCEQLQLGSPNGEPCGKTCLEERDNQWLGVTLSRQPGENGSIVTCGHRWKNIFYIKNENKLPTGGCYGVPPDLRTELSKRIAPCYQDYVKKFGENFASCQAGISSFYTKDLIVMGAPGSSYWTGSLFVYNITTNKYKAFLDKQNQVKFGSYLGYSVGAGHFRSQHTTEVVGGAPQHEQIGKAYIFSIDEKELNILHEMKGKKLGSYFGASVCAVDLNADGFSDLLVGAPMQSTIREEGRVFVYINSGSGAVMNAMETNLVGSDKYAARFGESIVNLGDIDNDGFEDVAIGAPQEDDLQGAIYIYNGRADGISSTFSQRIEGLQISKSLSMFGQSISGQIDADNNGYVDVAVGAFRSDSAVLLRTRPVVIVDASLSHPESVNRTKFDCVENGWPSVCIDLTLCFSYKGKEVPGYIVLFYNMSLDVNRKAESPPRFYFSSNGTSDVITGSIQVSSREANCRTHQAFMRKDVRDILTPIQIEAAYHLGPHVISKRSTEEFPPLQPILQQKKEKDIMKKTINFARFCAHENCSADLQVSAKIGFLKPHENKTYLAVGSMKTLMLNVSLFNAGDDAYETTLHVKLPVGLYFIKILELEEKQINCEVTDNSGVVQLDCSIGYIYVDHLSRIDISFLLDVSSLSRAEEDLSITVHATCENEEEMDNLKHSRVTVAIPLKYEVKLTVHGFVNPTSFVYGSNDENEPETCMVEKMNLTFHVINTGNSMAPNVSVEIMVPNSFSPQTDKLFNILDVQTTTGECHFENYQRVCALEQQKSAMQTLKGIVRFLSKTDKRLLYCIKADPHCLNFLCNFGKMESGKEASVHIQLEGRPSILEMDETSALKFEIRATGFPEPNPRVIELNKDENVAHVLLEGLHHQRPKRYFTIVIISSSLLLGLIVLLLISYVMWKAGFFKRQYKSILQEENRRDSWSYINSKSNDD
Sequence of α4β7 (P26010 20-798): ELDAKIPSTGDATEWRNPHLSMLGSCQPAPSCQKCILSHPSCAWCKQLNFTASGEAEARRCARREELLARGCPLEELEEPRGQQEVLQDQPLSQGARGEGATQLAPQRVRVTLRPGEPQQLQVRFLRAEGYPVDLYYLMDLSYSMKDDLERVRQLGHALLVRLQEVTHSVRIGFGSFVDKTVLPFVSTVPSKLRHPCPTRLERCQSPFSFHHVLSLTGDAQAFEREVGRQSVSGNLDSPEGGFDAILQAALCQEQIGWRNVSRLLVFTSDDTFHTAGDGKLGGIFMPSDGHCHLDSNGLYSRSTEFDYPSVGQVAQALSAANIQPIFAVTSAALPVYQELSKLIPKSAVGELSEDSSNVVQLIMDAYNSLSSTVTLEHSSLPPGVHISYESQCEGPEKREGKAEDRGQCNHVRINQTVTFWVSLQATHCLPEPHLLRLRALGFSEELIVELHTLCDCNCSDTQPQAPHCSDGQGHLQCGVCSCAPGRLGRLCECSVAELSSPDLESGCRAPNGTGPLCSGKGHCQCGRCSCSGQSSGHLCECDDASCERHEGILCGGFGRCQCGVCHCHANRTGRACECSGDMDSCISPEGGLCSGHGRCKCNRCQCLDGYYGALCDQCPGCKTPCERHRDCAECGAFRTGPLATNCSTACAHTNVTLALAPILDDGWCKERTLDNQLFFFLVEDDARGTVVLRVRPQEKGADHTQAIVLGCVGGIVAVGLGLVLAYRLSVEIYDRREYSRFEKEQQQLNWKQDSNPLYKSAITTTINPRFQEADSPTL

Row | Compound | half-life at 22 μM [1, 2] | IC50 (α4β7) | half-life at 22 μM ([1]; alone or in parentheses after >360, read-out: Stabilty SIF t1/2, in hr (converted))
1 | CC(=O)N[C@@H]1C(=O)N(C)[C@@H](CCCNC(=N)N)C(=O)N[C@@H](CO)C(=O)N[C@@H](CC(=O)O)C(=O)N[C@@H]([C@@H](C)O)C(=O)N[C@@H](CC(C)C)C(=O)N[C@H](C(=O)N[C@@H](Cc2ccc(F)cc2)C(=O)N[C@H](CCC(=O)O)C(=O)N[C@H](CCCCNC(=O)COCC(=O)NCCCC[C@@H](NC(=O)[C@@H](CCC(=O)O)NC(=O)[C@H](Cc2ccc(F)cc2)NC(=O)[C@H]2NC(=O)[C@H](CC(C)C)NC(=O)[C@H]([C@@H](C)O)NC(=O)[C@H](CC(=O)O)NC(=O)[C@H](CO)NC(=O)[C@H](CCCNC(=N)N)N(C)C(=O)[C@@H](NC(C)=O)C(C)(C)SSC2(C)C)C(N)=O)C(N)=O)C(C)(C)SSC1(C)C [compound 107] (I: Ac-[Pen][NMeR]SDTL[Pen][Phe(4-F)][dE][dK]-NH2 / II: Ac-[Pen][NMeR]SDTL[Pen][Phe(4-F)][dE][dK]-NH2; disulfide I:1-I:7, II:1-II:7; linker I:10-II:10 via Diglycolyl) | > 3 h | 25 to 50 nM | –
2 | CC(=O)N[C@@H]1C(=O)N(C)[C@@H](CCCNC(=N)N)C(=O)N[C@@H](CO)C(=O)N[C@@H](CC(=O)O)C(=O)N[C@@H]([C@@H](C)O)C(=O)N[C@@H](CC(C)C)C(=O)N[C@H](C(=O)N[C@@H](Cc2c[nH]c3ccccc23)C(=O)O)C(C)(C)SSC1(C)C [compound 127] (Ac-[Pen][NMeR]SDTL[Pen]W-OH; disulfide 1-7) | – | 100 to 500 nM | 35 h
3 | CC(=O)N[C@@H]1C(=O)N(C)[C@@H](CCCNC(=N)N)C(=O)N[C@@H](CO)C(=O)N[C@@H](CC(=O)O)C(=O)N[C@@H]([C@@H](C)O)C(=O)N[C@@H](CC(C)C)C(=O)N[C@H](C(=O)N[C@@H](Cc2c[nH]c3ccccc23)C(=O)N[C@H](CCC(=O)O)C(=O)N[C@@H](CN)C(N)=O)C(C)(C)SSC1(C)C [compound 55] (Ac-[Pen][NMeR]SDTL[Pen]W[dE][Dap]-NH2; disulfide 1-7) | > 3 h | 100 to 500 nM | –
4 | CC(=O)N[C@@H]1C(=O)N(C)[C@@H](CCCNC(=N)N)C(=O)N[C@@H](CO)C(=O)N[C@@H](CC(=O)O)C(=O)N[C@@H]([C@@H](C)O)C(=O)N[C@@H](CC(C)C)C(=O)N[C@H](C(=O)N[C@@H](Cc2c[nH]c3ccccc23)C(=O)N[C@@H](CCC(=O)O)C(=O)O)C(C)(C)SSC1(C)C [compound 128] (Ac-[Pen][NMeR]SDTL[Pen]WE-OH; disulfide 1-7) | 3 h | 50 to 100 nM | –
5 | CC(=O)N[C@@H]1C(=O)N(C)[C@@H](CCCNC(=N)N)C(=O)N[C@@H](CO)C(=O)N[C@@H](CC(=O)O)C(=O)N[C@@H]([C@@H](C)O)C(=O)N[C@@H](CC(C)C)C(=O)N[C@H](C(=O)N[C@@H](Cc2ccc3ccccc3c2)C(=O)N[C@H](Cc2ccc(O)cc2)C(=O)N[C@H](CCCCNC(=O)COCC(=O)NCCCC[C@@H](NC(=O)[C@@H](Cc2ccc(O)cc2)NC(=O)[C@H](Cc2ccc3ccccc3c2)NC(=O)[C@H]2NC(=O)[C@H](CC(C)C)NC(=O)[C@H]([C@@H](C)O)NC(=O)[C@H](CC(=O)O)NC(=O)[C@H](CO)NC(=O)[C@H](CCCNC(=N)N)N(C)C(=O)[C@@H](NC(C)=O)C(C)(C)SSC2(C)C)C(N)=O)C(N)=O)C(C)(C)SSC1(C)C [compound 27] (I: Ac-[Pen][NMeR]SDTL[Pen][2Nal][dY][dK]-NH2 / II: Ac-[Pen][NMeR]SDTL[Pen][2Nal][dY][dK]-NH2; disulfide I:1-I:7, II:1-II:7; linker I:10-II:10 via Diglycolyl) | > 3 h | 25 to 50 nM | –
6 | CC(=O)N[C@@H]1C(=O)N(C)[C@@H](CCCNC(=N)N)C(=O)N[C@@H](CO)C(=O)N[C@@H](CC(=O)O)C(=O)N[C@@H]([C@@H](C)O)C(=O)N[C@@H](CC(C)C)C(=O)N[C@H](C(=O)N[C@@H](Cc2c[nH]c3ccccc23)C(=O)N(C)[C@@H](CCCCNC(=O)COCC(=O)NCCCC[C@@H](C(N)=O)N(C)C(=O)[C@H](Cc2c[nH]c3ccccc23)NC(=O)[C@H]2NC(=O)[C@H](CC(C)C)NC(=O)[C@H]([C@@H](C)O)NC(=O)[C@H](CC(=O)O)NC(=O)[C@H](CO)NC(=O)[C@H](CCCNC(=N)N)N(C)C(=O)[C@@H](NC(C)=O)C(C)(C)SSC2(C)C)C(N)=O)C(C)(C)SSC1(C)C [compound 77] (I: Ac-[Pen][NMeR]SDTL[Pen]W[NMeK]-NH2 / II: Ac-[Pen][NMeR]SDTL[Pen]W[NMeK]-NH2; disulfide I:1-I:7, II:1-II:7; linker I:9-II:9 via Diglycolyl) | > 3 h | 100 to 500 nM | –
7 | CC(=O)N[C@@H]1C(=O)N(C)[C@@H](CCCNC(=N)N)C(=O)N[C@@H](CO)C(=O)N[C@@H](CC(=O)O)C(=O)N[C@@H]([C@@H](C)O)C(=O)N[C@@H](CC(C)C)C(=O)N[C@H](C(=O)N[C@@H](Cc2ccc3ccccc3c2)C(=O)N[C@H](CCC(=O)O)C(=O)N(C)[C@H](CCCCNC(=O)COCC(=O)NCCCC[C@H](C(N)=O)N(C)C(=O)[C@@H](CCC(=O)O)NC(=O)[C@H](Cc2ccc3ccccc3c2)NC(=O)[C@H]2NC(=O)[C@H](CC(C)C)NC(=O)[C@H]([C@@H](C)O)NC(=O)[C@H](CC(=O)O)NC(=O)[C@H](CO)NC(=O)[C@H](CCCNC(=N)N)N(C)C(=O)[C@@H](NC(C)=O)C(C)(C)SSC2(C)C)C(N)=O)C(C)(C)SSC1(C)C [compound 39] (I: Ac-[Pen][NMeR]SDTL[Pen][2Nal][dE][dNMeK]-NH2 / II: Ac-[Pen][NMeR]SDTL[Pen][2Nal][dE][dNMeK]-NH2; disulfide I:1-I:7, II:1-II:7; linker I:10-II:10 via Diglycolyl) | > 3 h | 10 to 25 nM | –
8 | CC(=O)N[C@@H]1C(=O)N(C)[C@@H](CCCNC(=N)N)C(=O)N[C@@H](CO)C(=O)N[C@@H](CC(=O)O)C(=O)N[C@@H]([C@@H](C)O)C(=O)N[C@@H](CC(C)C)C(=O)N[C@H](C(=O)N[C@@H](CCc2ccccc2)C(=O)N[C@@H](CCC(=O)O)C(=O)N[C@H](CCCCNC(=O)COCC(=O)NCCCC[C@@H](NC(=O)[C@H](CCC(=O)O)NC(=O)[C@H](CCc2ccccc2)NC(=O)[C@H]2NC(=O)[C@H](CC(C)C)NC(=O)[C@H]([C@@H](C)O)NC(=O)[C@H](CC(=O)O)NC(=O)[C@H](CO)NC(=O)[C@H](CCCNC(=N)N)N(C)C(=O)[C@@H](NC(C)=O)C(C)(C)SSC2(C)C)C(N)=O)C(N)=O)C(C)(C)SSC1(C)C [compound 45] (I: Ac-[Pen][NMeR]SDTL[Pen][hPhe]E[dK]-NH2 / II: Ac-[Pen][NMeR]SDTL[Pen][hPhe]E[dK]-NH2; disulfide I:1-I:7, II:1-II:7; linker I:10-II:10 via Diglycolyl) | 0.617 h | 25 to 50 nM | –
9 | CC(=O)N[C@@H]1C(=O)N(C)[C@@H](CCCNC(=N)N)C(=O)N[C@@H](CO)C(=O)N[C@@H](CC(=O)O)C(=O)N[C@@H]([C@@H](C)O)C(=O)N[C@@H](CC(C)C)C(=O)N[C@H](C(=O)N[C@@H](Cc2c[nH]c3ccccc23)C(=O)N[C@H](Cc2c[nH]cn2)C(=O)N[C@H](CCCCNC(=O)COCC(=O)NCCCC[C@@H](NC(=O)[C@@H](Cc2c[nH]cn2)NC(=O)[C@H](Cc2c[nH]c3ccccc23)NC(=O)[C@H]2NC(=O)[C@H](CC(C)C)NC(=O)[C@H]([C@@H](C)O)NC(=O)[C@H](CC(=O)O)NC(=O)[C@H](CO)NC(=O)[C@H](CCCNC(=N)N)N(C)C(=O)[C@@H](NC(C)=O)C(C)(C)SSC2(C)C)C(N)=O)C(N)=O)C(C)(C)SSC1(C)C [compound 104] (I: Ac-[Pen][NMeR]SDTL[Pen]W[dH][dK]-NH2 / II: Ac-[Pen][NMeR]SDTL[Pen]W[dH][dK]-NH2; disulfide I:1-I:7, II:1-II:7; linker I:10-II:10 via Diglycolyl) | 0.583 h | 100 to 500 nM | –
10 | CC(=O)N[C@@H]1C(=O)N(C)[C@@H](CCCNC(=N)N)C(=O)N[C@@H](CO)C(=O)N[C@@H](CC(=O)O)C(=O)N[C@@H]([C@@H](C)O)C(=O)N[C@@H](CC(C)C)C(=O)N[C@H](C(=O)N2Cc3ccccc3C[C@H]2C(=O)N[C@H](CCC(=O)O)C(=O)N[C@H](CCCCNC(=O)COCC(=O)NCCCC[C@@H](NC(=O)[C@@H](CCC(=O)O)NC(=O)[C@@H]2Cc3ccccc3CN2C(=O)[C@H]2NC(=O)[C@H](CC(C)C)NC(=O)[C@H]([C@@H](C)O)NC(=O)[C@H](CC(=O)O)NC(=O)[C@H](CO)NC(=O)[C@H](CCCNC(=N)N)N(C)C(=O)[C@@H](NC(C)=O)C(C)(C)SSC2(C)C)C(N)=O)C(N)=O)C(C)(C)SSC1(C)C [compound 80] (I: Ac-[Pen][NMeR]SDTL[Pen][Tic][dE][dK]-NH2 / II: Ac-[Pen][NMeR]SDTL[Pen][Tic][dE][dK]-NH2; disulfide I:1-I:7, II:1-II:7; linker I:10-II:10 via Diglycolyl) | > 3 h | 50 to 100 nM | –
